These molecules were tested against PIK3CG (human) (UniProt P48736) (assay: Inhibition of PIK3CG Kinase Activity).
PIK3CG (human), sequence (P48736 whole entry, looked up): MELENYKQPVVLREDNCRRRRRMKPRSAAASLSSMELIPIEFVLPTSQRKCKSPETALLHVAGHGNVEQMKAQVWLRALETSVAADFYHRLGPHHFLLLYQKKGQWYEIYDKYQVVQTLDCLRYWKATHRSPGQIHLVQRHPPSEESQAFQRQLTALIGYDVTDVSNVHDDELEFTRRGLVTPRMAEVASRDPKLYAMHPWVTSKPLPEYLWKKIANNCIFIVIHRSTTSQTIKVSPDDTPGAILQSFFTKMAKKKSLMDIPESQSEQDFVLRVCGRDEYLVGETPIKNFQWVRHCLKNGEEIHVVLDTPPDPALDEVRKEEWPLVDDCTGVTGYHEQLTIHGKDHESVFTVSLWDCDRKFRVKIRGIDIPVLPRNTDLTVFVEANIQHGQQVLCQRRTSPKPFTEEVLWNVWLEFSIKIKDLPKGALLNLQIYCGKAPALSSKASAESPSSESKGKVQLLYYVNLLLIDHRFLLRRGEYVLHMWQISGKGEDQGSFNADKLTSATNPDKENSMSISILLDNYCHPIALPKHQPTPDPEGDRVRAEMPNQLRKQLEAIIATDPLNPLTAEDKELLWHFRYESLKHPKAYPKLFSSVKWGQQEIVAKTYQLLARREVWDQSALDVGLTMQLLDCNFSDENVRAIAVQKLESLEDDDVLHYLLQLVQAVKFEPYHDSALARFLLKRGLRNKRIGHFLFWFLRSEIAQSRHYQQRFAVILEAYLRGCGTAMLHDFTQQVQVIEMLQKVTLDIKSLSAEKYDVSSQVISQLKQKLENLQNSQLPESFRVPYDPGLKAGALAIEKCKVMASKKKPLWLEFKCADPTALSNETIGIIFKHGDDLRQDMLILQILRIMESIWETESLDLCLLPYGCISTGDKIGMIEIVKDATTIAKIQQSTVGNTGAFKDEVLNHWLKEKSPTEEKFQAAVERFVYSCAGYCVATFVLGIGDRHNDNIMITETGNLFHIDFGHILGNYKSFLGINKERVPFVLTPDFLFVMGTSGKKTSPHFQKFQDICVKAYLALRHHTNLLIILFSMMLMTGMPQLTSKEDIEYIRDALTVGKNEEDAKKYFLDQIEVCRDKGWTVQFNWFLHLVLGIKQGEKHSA

IC50, < 600 nM:
CC(=O)Nc1nc2c(s1)-c1c(c(C3CC3)nn1-c1ccc(C(=O)N(C)C3CCN(C4CCCC4)CC3)c(Cl)c1)CC2, CC(=O)Nc1nc2c(s1)-c1c(c(C3CC3)nn1[C@H]1CC[C@@H](C(=O)NC3CCN(C4CCCC4)CC3)CC1)CC2, CC(=O)Nc1nc2c(s1)-c1c(c(C3CC3)nn1-c1ccc(C(=O)N[C@H]3CCN(C4CCCC4)C3)c(Cl)c1)CC2, CC(=O)Nc1nc2c(s1)-c1c(c(C3CC3)nn1-c1ccc(C(=O)NC3CCN(CC4CCCCC4)CC3)c(Cl)c1)CC2, CC(=O)Nc1nc2c(s1)-c1c(c(C3CC3)nn1-c1ccc(C(=O)NC[C@H]3CCN(CC4CCCC4)C3)c(Cl)c1)CC2, CC(=O)Nc1nc2c(s1)-c1c(c(C3CC3)nn1-c1ccc(NCC3CCN(C(=O)OC(C)(C)C)CC3)cc1Cl)CC2, CC(=O)Nc1nc2c(s1)-c1c(c(C3CC3)nn1-c1ccc(C(=O)N(C)[C@H]3CC[C@@H](N(C)CC4CC4)CC3)c(C)c1)CC2, CC(=O)Nc1nc2c(s1)-c1c(c(C3CC3)nn1-c1ccc(CC(N)=O)cc1Cl)CC2, CC(=O)Nc1nc2c(s1)-c1c(c(C3(C)CC3)nn1-c1ccc(C(=O)N(C)[C@H]3CC[C@@H](N4CCCC4)CC3)cc1Cl)CC2, CCN(C(=O)c1ccc(-n2nc(C3CC3)c3c2-c2sc(NC(C)=O)nc2CC3)cc1Cl)[C@H]1CC[C@@H](N2CCCC2)CC1, CC(=O)Nc1nc2c(s1)-c1c(c(C3CC3)nn1-c1ccc(C(=O)NC3CCN(CC4CCCCC4)CC3)cc1C)CC2, CC(=O)Nc1nc2c(s1)-c1c(c(C3CC3)nn1-c1ccc(C(=O)N(C)[C@@H]3CCN(CC4CCCC4)C3)cc1F)CC2, CC(=O)Nc1nc2c(s1)-c1c(c(C3CC3)nn1-c1ccc(C(=O)NC3CCN(C4CCCC4)CC3)cc1F)CC2, CCCN1CC[C@@H](NC(=O)c2ccc(-n3nc(C4CC4)c4c3-c3sc(NC(C)=O)nc3CC4)c(Cl)c2)C1, CC(=O)Nc1nc2c(s1)-c1c(c(C3CC3)nn1-c1ccc(C(=O)N[C@H]3CC[C@@H](N(C)CC4CCCC4)CC3)c(C)c1)CC2, CC(=O)Nc1nc2c(s1)-c1c(c(C3CC3)nn1-c1ccc(C(=O)N(C)[C@H]3CC[C@@H](N4CCCC4)CC3)c(C)c1)CC2, CCCN1CCC(NC(=O)c2ccc(-n3nc(C4CCC4)c4c3-c3sc(NC(C)=O)nc3CC4)c(Cl)c2)CC1, CCCN1CCC(NC(=O)c2ccc(-n3nc(C4CC4)c4c3-c3sc(NC(C)=O)nc3CC4)cc2C)CC1, CCCN1CCC(NC(=O)c2ccc(-n3nc(C4CC4)c4c3-c3sc(NC(C)=O)nc3CC4)cc2F)CC1, CC(=O)Nc1nc2c(s1)-c1c(c(C3CC3)nn1-c1ccc(C(=O)N[C@H]3CCN(CC4CCCC4)C3)cc1F)CC2, CC(=O)Nc1nc2c(s1)-c1c(c(C3CC3)nn1-c1ccc(C(=O)NC[C@@H]3CCN(C4CCCC4)C3)c(Cl)c1)CC2, CC(=O)Nc1nc2c(s1)-c1c(c(C3CC3)nn1-c1ccc(N(C)C(=O)C3CCN(C4CCCC4)CC3)cc1Cl)CC2, CC(=O)Nc1nc2c(s1)-c1c(c(C3CC3)nn1-c1ccc(C(=O)N(C)[C@@H]3CCN(C4CCCC4)C3)c(F)c1)CC2, CC(=O)Nc1nc2c(s1)-c1c(c(C3CC3)nn1-c1ccc(C(=O)N(C)[C@H]3CC[C@@H](N(C)CC4CC4)CC3)c(Cl)c1)CC2, CC(=O)Nc1nc2c(s1)-c1c(c(C3CC3)nn1-c1ccc(N)c(Cl)c1)CC2, CC(=O)Nc1nc2c(s1)-c1c(c(C3CCC3)nn1-c1ccc(C(=O)N[C@H]3CC[C@@H](N4CCCC4)CC3)cc1Cl)CC2, COc1cc(-n2nc(C3CC3)c3c2-c2sc(NC(C)=O)nc2CC3)ccc1C(=O)NC1CCN(C2CCCC2)CC1, CC(=O)Nc1nc2c(s1)-c1c(c(C3CC3)nn1-c1ccc(C(=O)NC[C@@H]3CCCN3)c(Cl)c1)CC2, CC(=O)Nc1nc2c(s1)-c1c(c(C3CC3)nn1-c1ccc(C(=O)N(C)[C@@H]3CCN(CC4CCCC4)C3)c(F)c1)CC2, CC(=O)Nc1nc2c(s1)-c1c(c(C3CC3)nn1-c1ccc(C(=O)NCC3CCN(C4CCCC4)CC3)cc1Cl)CC2, CNC(=O)c1ccc(-n2nc(C3CC3)c3c2-c2sc(NC(C)=O)nc2CC3)c(Cl)c1, COc1cc(-n2nc(C3CC3)c3c2-c2sc(NC(C)=O)nc2CC3)ccc1C(=O)N1CCC(N2CCCC2)CC1, CC(=O)Nc1nc2c(s1)-c1c(c(C3CC3)nn1-c1ccc(C(=O)N(C)C3CCC(N4CCCC4)CC3)c(F)c1)CC2 (stereo not drawn), CC(=O)Nc1nc2c(s1)-c1c(c(C3CCC3)nn1-c1ccc(C(=O)N(C)[C@H]3CC[C@@H](N4CCCC4)CC3)cc1Cl)CC2, CCCN1CC[C@@H](NC(=O)c2ccc(-n3nc(C4CC4)c4c3-c3sc(NC(C)=O)nc3CC4)cc2Cl)C1, CC(=O)Nc1nc2c(s1)-c1c(c(C3CC3)nn1-c1ccc(C(=O)NC3CCN(C4CCOCC4)CC3)cc1Cl)CC2, CC(=O)Nc1nc2c(s1)-c1c(c(C3CC3)nn1-c1ccc(C(=O)N[C@@H]3CCN(C4CCCC4)C3)c(C)c1)CC2, CC(=O)Nc1nc2c(s1)-c1c(c(C3CC3)nn1-c1ccc(C(=O)N3CC[C@H](CN4CCCC4)C3)cc1Cl)CC2, CC(=O)Nc1nc2c(s1)-c1c(c(C3CC3)nn1-c1ccc(C(=O)N[C@H]3CC[C@@H](N4CCOCC4)CC3)c(Cl)c1)CC2, CC(=O)Nc1nc2c(s1)-c1c(c(C3CC3)nn1-c1ccc(C(=O)NC3CCN(C4CCOCC4)CC3)c(C)c1)CC2, CC(=O)Nc1nc2c(s1)-c1c(c(C3CC3)nn1C1CCC(C(N)=O)CC1)CC2 (stereo not drawn), CC(=O)Nc1nc2c(s1)-c1c(c(C3CC3)nn1-c1ccc(C(=O)N[C@@H]3CCN(CC4CCCC4)C3)cc1C)CC2, CC(=O)Nc1nc2c(s1)-c1c(c(C3CCCC3)nn1-c1ccc(C(=O)NC3CCN(C4CCCC4)CC3)cc1Cl)CC2, CC(=O)Nc1nc2c(s1)-c1c(c(C3CC3)nn1-c1ccc(C(=O)N[C@H]3CC[C@@H](N(C)CC4CCCC4)CC3)c(Cl)c1)CC2, CC(=O)Nc1nc2c(s1)-c1c(c(C3CC3)nn1-c1ccc(C(=O)N[C@H]3CC[C@@H](N(C)CC4CC4)CC3)c(C)c1)CC2, CC(=O)Nc1nc2c(s1)-c1c(c(C3CC3)nn1-c1ccc(C(=O)N[C@H]3CC[C@@H](N(C)CC4CCCC4)CC3)cc1Cl)CC2, CCCN1CCC(NC(=O)c2ccc(-n3nc(C4CCCC4)c4c3-c3sc(NC(C)=O)nc3CC4)c(Cl)c2)CC1, CC(=O)Nc1nc2c(s1)-c1c(c(C3(C)CC3)nn1-c1ccc(C(=O)NC3CCN(C4CCCC4)CC3)cc1Cl)CC2, CC(=O)Nc1nc2c(s1)-c1c(c(C3CC3)nn1-c1ccccc1)CC2, CC(=O)Nc1nc2c(s1)-c1c(c(C3CC3)nn1-c1ccc(C(=O)N(C)C)cc1Cl)CC2, CC(=O)Nc1nc2c(s1)-c1c(c(C3CC3)nn1-c1ccccc1Cl)CC2, CC(=O)Nc1nc2c(s1)-c1c(c(C3CC3)nn1-c1ccc(C(=O)N[C@H]3CC[C@@H](N4CCOCC4)CC3)cc1C)CC2, CC(=O)Nc1nc2c(s1)-c1c(c(C3CC3)nn1-c1ccc(C(=O)N(C)[C@H]3CC[C@@H](N(C)CC4CCCC4)CC3)c(Cl)c1)CC2, CCCN1CCC(C(=O)N(C)c2ccc(-n3nc(C4CC4)c4c3-c3sc(NC(C)=O)nc3CC4)c(Cl)c2)CC1, CNc1ccc(-n2nc(C3CC3)c3c2-c2sc(NC(C)=O)nc2CC3)c(Cl)c1, CC(=O)Nc1nc2c(s1)-c1c(c(C3CC3)nn1-c1ccc(C(=O)N[C@H]3CC[C@@H](N(C)CC4CC4)CC3)cc1F)CC2, CC(=O)Nc1nc2c(s1)-c1c(c(C3CC3)nn1C1CCN(C(=O)N3CCN(C(C)C)CC3)CC1)CC2, CC(=O)Nc1nc2c(s1)-c1c(c(C3CC3)nn1-c1ccc(C(=O)N(C)[C@H]3CC[C@@H](N4CCCC4)CC3)cc1F)CC2, CC(=O)Nc1nc2c(s1)-c1c(c(C3CC3)nn1-c1ccc(C(=O)N[C@H]3CC[C@@H](N4CCOCC4)CC3)c(C)c1)CC2, CC(=O)Nc1nc2c(s1)-c1c(c(C3CC3)nn1-c1ccc(C(=O)NC[C@H]3CCNC3)c(Cl)c1)CC2, COc1cc(-n2nc(C3CC3)c3c2-c2sc(NC(C)=O)nc2CC3)ccc1C(=O)N[C@H]1CC[C@@H](N2CCCC2)CC1, CCCN1CC[C@@H](NC(=O)c2ccc(-n3nc(C4CC4)c4c3-c3sc(NC(C)=O)nc3CC4)cc2C)C1, CC(=O)Nc1nc2c(s1)-c1c(c(C3CC3)nn1-c1ccc(C(=O)N(C)[C@H]3CC[C@@H](N4CCCCC4)CC3)c(Cl)c1)CC2, CC(=O)Nc1nc2c(s1)-c1c(c(C3CC3)nn1-c1ccc(C(=O)N[C@H]3CC[C@@H](N4CCCC4)CC3)c(Cl)c1)CC2, CC(=O)Nc1nc2c(s1)-c1c(c(C3CC3)nn1-c1ccc(C(=O)N(C)[C@@H]3CCN(C4CCCC4)C3)cc1C)CC2, CC(=O)Nc1nc2c(s1)-c1c(c(C3CC3)nn1-c1ccc(C(=O)NC3CCN(CC4CCCC4)CC3)c(Cl)c1)CC2, CNC(=O)C1CCC(n2nc(C3CC3)c3c2-c2sc(NC(C)=O)nc2CC3)CC1 (stereo not drawn), CC(=O)Nc1nc2c(s1)-c1c(c(C3CC3)nn1-c1ccc(C(=O)NC[C@H]3CCN(C4CCCC4)C3)c(Cl)c1)CC2

From the Kinase Knowledgebase extract (Sharma et al. 2016)
